Source: patent publication US12077503B2, “Substituted cyclic amides and their use as herbicides” (FMC CORPORATION, priority 2015, dated 2024)

Legend:
Type in all cases: in vivo
[1] = tested on: barnyardgrass (Echinochloa crus-galli); assay: Test B flooded paddy test; details: Flood, 250 g ai/ha; 0 to 100 scale where 0 is no effect and 100 is complete control; 13 to 15 d
Summary of the method: (§1)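 Visual ratings (0 none to 100 complete control) are relative to untreated plants, taken 13–15 d after treatment in a greenhouse. Test material went straight into floodwater standing 3 cm above the soil, kept constant, on plants at the 2-leaf stage.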

[2] = tested on: sedge, umbrella (small-flower umbrella sedge, Cyperus difformis); assay: Test B flooded paddy test; details: Flood, 250 g ai/ha; 0 to 100 scale where 0 is no effect and 100 is complete control; 13 to 15 d
Summary of the method: as §1

rice (Oryra sativa) = assay: Test B flooded paddy test; details: Flood, 250 g ai/ha; 0 to 100 scale where 0 is no effect and 100 is complete control; 13 to 15 d
Summary of the method: as §1

[3] = tested on: ducksalad (Heteranthera limosa); assay: Test B flooded paddy test; details: Flood, 250 g ai/ha; 0 to 100 scale where 0 is no effect and 100 is complete control; 13 to 15 d
Summary of the method: as §1

[4] = tested on: wheat (Triticum aestivum); assay: Test A postemergence; details: for Wheat plant response rating: 125 g ai/ha, postemergence, visual injury rating on 0 to 100 scale (0 no effect, 100 complete control), approx. 10 d; for Plant response rating, Wheat: Postemergence, 500 g ai/ha, 0 to 100 scale where 0 is no effect and 100 is complete control
Summary of the method: (§2)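 Each rating is a visual injury score from 0 to 100 given about 10 d after treatment, judged against untreated controls kept alongside in the greenhouse. In loam soil–sand blend, seeds got a preemergence directed soil spray, while postemergence plants were 2 to 10 cm tall at spraying.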

[5] = tested on: giant foxtail (Setaria faberii); assay: Test A postemergence; details: for Foxtail, Giant plant response rating: 125 g ai/ha, postemergence, visual injury rating on 0 to 100 scale (0 no effect, 100 complete control), approx. 10 d; for Plant response rating, Foxtail, Giant: Postemergence, 500 g ai/ha, 0 to 100 scale where 0 is no effect and 100 is complete control
Summary of the method: as §2

[6] = tested on: barnyardgrass (Echinochloa crus-galli); assay: Test A postemergence; details: postemergence; for Barnyardgrass plant response rating: 125 g ai/ha, visual injury rating on 0 to 100 scale (0 no effect, 100 complete control), approx. 10 d; for Plant response rating, Barnyardgrass: 500 g ai/ha, 0 to 100 scale, 0 no effect, 100 complete control
Summary of the method: as §2

corn (Zea mays) = assay: Test A postemergence; details: postemergence; for Corn plant response rating: 125 g ai/ha, visual injury rating on 0 to 100 scale (0 no effect, 100 complete control), approx. 10 d; for Plant response rating, Corn: 500 g ai/ha, 0 to 100 scale, 0 no effect, 100 complete control
Summary of the method: as §2

[7] = tested on: Galium (catchweed bedstraw, Galium aparine); assay: Test A postemergence; details: for Galium plant response rating: 125 g ai/ha, postemergence, visual injury rating on 0 to 100 scale (0 no effect, 100 complete control), approx. 10 d; for Plant response rating, Galium: Postemergence, 500 g ai/ha, 0 to 100 scale where 0 is no effect and 100 is complete control
Summary of the method: as §2

[8] = tested on: ragweed (common ragweed, Ambrosia elatior); assay: Test A postemergence; details: for Ragweed plant response rating: 125 g ai/ha, postemergence, visual injury rating on 0 to 100 scale (0 no effect, 100 complete control), approx. 10 d; for Plant response rating, Ragweed: Postemergence, 500 g ai/ha, 0 to 100 scale where 0 is no effect and 100 is complete control
Summary of the method: as §2

[9] = tested on: blackgrass (Alopecurus myosuroides); assay: Test A postemergence; details: postemergence; for Blackgrass plant response rating: 125 g ai/ha, visual injury rating on 0 to 100 scale (0 no effect, 100 complete control), approx. 10 d; for Plant response rating, Blackgrass: 500 g ai/ha, 0 to 100 scale, 0 no effect, 100 complete control
Summary of the method: as §2

[10] = tested on: ryegrass, Italian (Italian ryegrass, Lolium multiflorum); assay: Test A postemergence; details: for Ryegrass, Italian plant response rating: 125 g ai/ha, postemergence, visual injury rating on 0 to 100 scale (0 no effect, 100 complete control), approx. 10 d; for Plant response rating, Ryegrass, Italian: Postemergence, 500 g ai/ha, 0 to 100 scale where 0 is no effect and 100 is complete control
Summary of the method: as §2

[11] = tested on: pigweed (Amaranthus retroflexus); assay: Test A postemergence; details: for Pigweed plant response rating: 125 g ai/ha, postemergence, visual injury rating on 0 to 100 scale (0 no effect, 100 complete control), approx. 10 d; for Plant response rating, Pigweed: Postemergence, 500 g ai/ha, 0 to 100 scale where 0 is no effect and 100 is complete control
Summary of the method: as §2

Kochia (Kochia scoparia) [12] = assay: Test A postemergence; details: for Kochia plant response rating: 125 g ai/ha, postemergence, visual injury rating on 0 to 100 scale (0 no effect, 100 complete control), approx. 10 d; for Plant response rating, Kochia: Postemergence, 500 g ai/ha, 0 to 100 scale where 0 is no effect and 100 is complete control
Summary of the method: as §2

[13] = tested on: giant foxtail (Setaria faberii); assay: Test A preemergence; details: for Plant response rating, Foxtail, Giant: 125 g ai/ha, preemergence, 0 to 100 scale (0 no effect, 100 complete control); for Foxtail, Giant plant response rating (0 to 100 scale, 0 is no effect, 100 is complete control): Preemergence, 500 g ai/ha, visual injury approx. 10 d
Summary of the method: as §2

[14] = tested on: barnyardgrass (Echinochloa crus-galli); assay: Test A preemergence; details: for Plant response rating, Barnyardgrass: 125 g ai/ha, preemergence, 0 to 100 scale (0 no effect, 100 complete control); for Barnyardgrass plant response rating (0 to 100 scale, 0 is no effect, 100 is complete control): Preemergence, 500 g ai/ha, visual injury approx. 10 d
Summary of the method: as §2

[15] = tested on: ragweed (common ragweed, Ambrosia elatior); assay: Test A preemergence; details: Preemergence; for Plant response rating, Ragweed: 125 g ai/ha, visual injury after approximately 10 d, 0 to 100 scale where 0 is no effect and 100 is complete control; for Ragweed plant response rating (0 to 100 scale, 0 is no effect, 100 is complete control): 500 g ai/ha, visual injury approx. 10 d
Summary of the method: as §2

[16] = tested on: ryegrass, Italian (Italian ryegrass, Lolium multiflorum); assay: Test A preemergence; details: Preemergence; for Plant response rating, Ryegrass, Italian: 125 g ai/ha, visual injury after approximately 10 d, 0 to 100 scale where 0 is no effect and 100 is complete control; for Ryegrass, Italian plant response rating (0 to 100 scale, 0 is no effect, 100 is complete control): 500 g ai/ha, visual injury approx. 10 d
Summary of the method: as §2

[17] = tested on: pigweed (Amaranthus retroflexus); assay: Test A preemergence; details: Preemergence; for Plant response rating, Pigweed: 125 g ai/ha, visual injury after approximately 10 d, 0 to 100 scale where 0 is no effect and 100 is complete control; for Pigweed plant response rating (0 to 100 scale, 0 is no effect, 100 is complete control): 500 g ai/ha, visual injury approx. 10 d
Kochia (Kochia scoparia) [18] = assay: Test A preemergence; details: for Plant response rating, Kochia: 125 g ai/ha, preemergence, 0 to 100 scale (0 no effect, 100 complete control); for Kochia plant response rating (0 to 100 scale, 0 is no effect, 100 is complete control): Preemergence, 500 g ai/ha, visual injury approx. 10 d
Summary of the method: as §2

SMILES	Plant response rating, Barnyardgrass [1]	Plant response rating, Sedge, Umbrella [2]	Plant response rating, Rice (rice (Oryra sativa))	Plant response rating, Ducksalad [3]	Wheat plant response rating [4]	Plant response rating, Wheat [4]	Foxtail, Giant plant response rating [5]	Plant response rating, Foxtail, Giant [5]	Barnyardgrass plant response rating [6]	Plant response rating, Barnyardgrass [6]	Corn plant response rating (corn (Zea mays))	Plant response rating, Corn (corn (Zea mays))	Galium plant response rating [7]	Plant response rating, Galium [7]	Ragweed plant response rating [8]	Plant response rating, Ragweed [8]	Blackgrass plant response rating [9]	Plant response rating, Blackgrass [9]	Ryegrass, Italian plant response rating [10]	Plant response rating, Ryegrass, Italian [10]	other results
CC(C)c1ccc(C2CNC(=O)C2C(=O)Nc2cccc(F)c2F)cc1 (centres unmarked) [Compound 470]	0	0	0	85	0	0	40	80	60	70	0	0	0	0	0	0	30	50	0	20	Pigweed plant response rating [11]: 0; Plant response rating, Pigweed [11]: 0; Kochia plant response rating (Kochia (Kochia scoparia) [12]): 0; Plant response rating, Kochia (Kochia (Kochia scoparia) [12]): 0; Plant response rating, Foxtail, Giant [13]: 90; Foxtail, Giant plant response rating (0 to 100 scale, 0 is no effect, 100 is complete control) [13]: 90; Plant response rating, Barnyardgrass [14]: 90; Barnyardgrass plant response rating (0 to 100 scale, 0 is no effect, 100 is complete control) [14]: 90; Plant response rating, Ragweed [15]: 0; Plant response rating, Ryegrass, Italian [16]: 0; Ryegrass, Italian plant response rating (0 to 100 scale, 0 is no effect, 100 is complete control) [16]: 30; Plant response rating, Pigweed [17]: 0; Pigweed plant response rating (0 to 100 scale, 0 is no effect, 100 is complete control) [17]: 20; Plant response rating, Kochia (Kochia (Kochia scoparia) [18]): 70; Kochia plant response rating (0 to 100 scale, 0 is no effect, 100 is complete control) (Kochia (Kochia scoparia) [18]): 40
CN1CC(c2ccc(C(F)(F)F)cc2F)C(C(=O)Nc2cccc(F)c2F)C1=O (centres unmarked) [Compound 472]	60	0	20	75	30	60	80	90	90	90	40	80	50	50	0	0	30	60	40	60	Pigweed plant response rating [11]: 60; Plant response rating, Pigweed [11]: 60; Kochia plant response rating (Kochia (Kochia scoparia) [12]): 60; Plant response rating, Kochia (Kochia (Kochia scoparia) [12]): 70; Plant response rating, Foxtail, Giant [13]: 90; Foxtail, Giant plant response rating (0 to 100 scale, 0 is no effect, 100 is complete control) [13]: 90; Plant response rating, Barnyardgrass [14]: 90; Barnyardgrass plant response rating (0 to 100 scale, 0 is no effect, 100 is complete control) [14]: 90; Plant response rating, Ragweed [15]: 0; Ragweed plant response rating (0 to 100 scale, 0 is no effect, 100 is complete control) [15]: 50; Plant response rating, Ryegrass, Italian [16]: 50; Ryegrass, Italian plant response rating (0 to 100 scale, 0 is no effect, 100 is complete control) [16]: 80; Plant response rating, Pigweed [17]: 80; Pigweed plant response rating (0 to 100 scale, 0 is no effect, 100 is complete control) [17]: 90; Plant response rating, Kochia (Kochia (Kochia scoparia) [18]): 80; Kochia plant response rating (0 to 100 scale, 0 is no effect, 100 is complete control) (Kochia (Kochia scoparia) [18]): 80
CN1CC(c2ccc(C(F)(F)F)cc2F)C(C(=O)Nc2ccccc2F)C1=O (centres unmarked) [Compound 476]	0	0	0	80	0	30	80	80	90	90	0	30	30	60	0	0	20	50	30	40	Pigweed plant response rating [11]: 20; Plant response rating, Pigweed [11]: 40; Kochia plant response rating (Kochia (Kochia scoparia) [12]): 30; Plant response rating, Kochia (Kochia (Kochia scoparia) [12]): 60; Plant response rating, Foxtail, Giant [13]: 90; Foxtail, Giant plant response rating (0 to 100 scale, 0 is no effect, 100 is complete control) [13]: 100; Plant response rating, Barnyardgrass [14]: 90; Barnyardgrass plant response rating (0 to 100 scale, 0 is no effect, 100 is complete control) [14]: 90; Plant response rating, Ragweed [15]: 0; Ragweed plant response rating (0 to 100 scale, 0 is no effect, 100 is complete control) [15]: 60; Plant response rating, Ryegrass, Italian [16]: 0; Ryegrass, Italian plant response rating (0 to 100 scale, 0 is no effect, 100 is complete control) [16]: 40; Plant response rating, Pigweed [17]: 30; Pigweed plant response rating (0 to 100 scale, 0 is no effect, 100 is complete control) [17]: 80; Plant response rating, Kochia (Kochia (Kochia scoparia) [18]): 50; Kochia plant response rating (0 to 100 scale, 0 is no effect, 100 is complete control) (Kochia (Kochia scoparia) [18]): 70
